Measured values from ChEMBL document CHEMBL1921698, “Identification of small-molecule inhibitors of Trypansoma cruzi replication” (Bioorg Med Chem Lett, 2011).

What was measured:
[1] = Solubility of compound in phosphate buffered saline buffer; assay type: physicochemical
Trypanosoma cruzi = experiment: Antitrypanosomal activity against trypomastigote form of Trypanosoma cruzi Tulahuen expressing beta-galactosidase infected in mouse NIH/3T3 cells assessed as inhibition of parasite replication after 4 days by betagalactosidase-based luminescence assay; assay type: functional, organism-based; details: NIH3T3, 96 h
NIH3T3 [2] = experiment: Cytotoxicity against mouse NIH/3T3 cells; assay type: cell-based; details: for IC50: Mus musculus, NIH3T3; for Activity: mouse, nih3t3
[3] = Selectivity ratio of IC50 for mouse NIH/3T3 cells to IC50 for trypomastigote form of Trypanosoma cruzi Tulahuen; assay type: ADME, cell-based; details: read-out: Ratio IC50
NIH3T3 [4] = experiment: Cytotoxicity against mouse NIH/3T3 cells up to 19.5 uM; assay type: cell-based
[5] = Chemical stability of the compound in phosphate buffered saline assessed as compound remaining after 48 hrs; assay type: physicochemical; details: read-out: Stability

Structure (SMILES)	solubility [1]	IC50 (Trypanosoma cruzi)	remaining at 48 h [5]	IC50 (NIH3T3 [2])	selectivity ratio [3]	Activity (NIH3T3 [2])	Activity (NIH3T3 [4])
CN(Cc1ccccc1)C(=O)C1CCCN(Cc2ccc([N+](=O)[O-])cc2)C1 (centres undefined)	> 100 µM	7.63 µM	–	51 µM	6.68	–	–
COc1ccc(CCN(C)C(=O)C2CCCN(Cc3ccc(F)cc3)C2)cc1OC (centres undefined)	> 100 µM	4.33 µM	–	64.7 µM	14.9	–	–
CN(Cc1ccccc1)C(=O)C1CCCN(Cc2ccccc2C(F)(F)F)C1 (centres undefined)	> 100 µM	15.9 µM	–	63.3 µM	3.98	–	–
COc1ccc(C(=O)C2CCCN(CC3CCCCC3)C2)cc1OC (centres undefined)	> 200 µM	1.57 µM	–	–	–	–	–
CN(Cc1ccccc1)C(=O)C1CCCN(Cc2ccc(Br)cc2)C1 (centres undefined)	> 100 µM	3.01 µM	–	74.3 µM	24.6	–	–
Cn1cc(CN2CCCC(C(=O)c3ccc(C(C)(C)C)cc3)C2)cn1 (centres undefined)	> 200 µM	1.63 µM	–	–	–	–	–
Cc1cc(C)n(CC(=O)N2CCCC(C(=O)c3cccc(OC(C)C)c3)C2)n1 (centres undefined)	> 200 µM	16.5 µM	–	–	–	–	–
COc1ccccc1CN1CCCC(C(=O)N(C)Cc2ccccc2)C1 (centres undefined)	> 100 µM	10.8 µM	–	77.3 µM	7.16	–	–
CCN(CC)C(=O)C1CCCN(Cc2cccc(Cl)c2)C1 (centres undefined)	> 100 µM	9.91 µM	–	164 µM	16.6	–	–
COc1ccc(CN2CCCC(C(=O)N3CCc4ccccc4C3)C2)cc1OC (centres undefined)	> 100 µM	3.54 µM	–	41.7 µM	11.8	–	–
COc1ccc(C(=O)C2CCCN(CCc3ccccc3)C2)cc1OC (centres undefined)	> 200 µM	0.518 µM	–	19.5 µM	37.7	–	–

Continued by falling IC50 (Trypanosoma cruzi), values first:

solubility [1]	IC50 (Trypanosoma cruzi)	remaining at 48 h [5]	Structure (SMILES)	IC50 (NIH3T3 [2])	selectivity ratio [3]	Activity (NIH3T3 [2])	Activity (NIH3T3 [4])
> 100 µM	1.4 µM	–	COc1ccc(CCN(C)C(=O)C2CCCN(Cc3ccccc3)C2)cc1OC (centres undefined)	47 µM	33.6	–	–
> 100 µM	1.01 µM	–	COc1ccc(CN2CCCC(C(=O)N3CCCC3)C2)c(OC)c1OC (centres undefined)	–	–	Non-toxic	–
> 100 µM	0.763 µM	–	COc1cc2c(cc1OC)CN(C(=O)C1CCCN(Cc3ccccc3)C1)CC2 (centres undefined)	52.7 µM	69.1	–	–
> 100 µM	0.57 µM	–	CN(Cc1ccccc1)C(=O)C1CCCN(Cc2cccc(Cl)c2)C1 (centres undefined)	70.3 µM	123	–	–
> 200 µM	0.25 µM	–	CCCn1cc(CN2CCCC(C(=O)c3cccc(C(F)(F)F)c3)C2)cn1 (centres undefined)	–	–	–	–
> 500 µM	0.109 µM	84%	COc1ccc(CCN(C)C(=O)C2CCCN(Cc3ccc(OC)c(OC)c3)C2)cc1OC (centres undefined)	–	–	Non-toxic	Non-toxic
> 200 µM	0.056 µM	–	CCn1ncc(CN2CCCC(C(=O)c3cccc(OC(C)C)c3)C2)c1C (centres undefined)	–	–	Non-toxic	–
> 200 µM	0.054 µM	–	CC(C)Oc1cccc(C(=O)C2CCCN(Cc3cnn(C(C)C)c3)C2)c1 (centres undefined)	–	–	Non-toxic	–
> 500 µM	0.035 µM	–	CCCn1ncc(CN2CCCC(C(=O)c3cccc(OC(C)C)c3)C2)c1C (centres undefined)	–	–	Non-toxic	Non-toxic
> 100 µM	0.008 µM	–	CN(Cc1ccccc1)C(=O)C1CCCN(Cc2ccc(C(F)(F)F)cc2)C1 (centres undefined)	61.6 µM	> 1000	–	–
